Assays:
[1] = test system: Mixed primary male CD-1 mouse hepatocytes; test: Metabolism in mouse hepatocytes, UPLC-UV/Q-TOF MS; format: in vitro ADME; conditions: 180 min
Procedure: (§1) In this example, a UPLC-UV/Q-TOF MS method was used to evaluate the differences in the metabolic processes of TL134 in hepatocytes of five species of human, monkey, canine, rat, and mouse. It provides a reference for the selection of preclinical pharmacokinetics and studies on animal species safety evaluation.
(§2) The total volume of each incubation sample was 100 μL, the medium was WME medium (pH 7.4), and the incubation sample included hepatocytes with a cell density of 1.0×10^6 cells/mL and TL134 with a final concentration of 3.0 μM; the negative control sample was incubated with thermal-inactivated mixed hepatocytes (without cell counting) of five species of animals and TL134, and the buffer control sample was incubated with WME medium and TL134. All samples were incubated at 37° C. for 180 min, and then 100 μL of ice-cold acetonitrile was added to stop the reaction. The samples were stored at −70° C. for ready to be tested, and all incubation samples were double samples.
(§3) Triple TOF 5600′ quadrupole-time-of-flight tandem mass spectrometer (Q-TOF MS), equipped with electrospray ionization source (ESI source) and CDS automatic calibration system, AB SCIEX Company, USA; Acquity UPLC liquid chromatography system, including binary infusion pump, autosampler, column oven, degasser and TUV ultraviolet detector, Waters Company, USA. […]

[2] = test system: Mixed primary male SD rat hepatocytes; test: Metabolism in rat hepatocytes, UPLC-UV/Q-TOF MS; format: in vitro ADME; conditions: 180 min
Procedure: as §1, §2, §3

Compound: COc1cc2c(Oc3ccc(NC(=O)c4c(C)n(C)c5ccc(OC(F)(F)F)cc5c4=O)cc3F)ncnc2cc1OCCCN1CCOCC1 [TL-134, N-(3-fluoro-4-((6-methoxy-7-(3-morpholinopropoxy)quinazolin-4-yl)oxy)phenyl)-1,2-dim ethyl-4-oxo-6-(trifluoromethoxy)-1,4-dihydroquinoline-3-carboxamide]
- prototype drug metabolized, judging from the UV chromatographic peak areas [1]: ~3.0%
- prototype drug metabolized, judging from the UV chromatographic peak areas [2]: ~19.8%
